Measured values taken from paper PMC12797170, “Potent Competitive Inhibitors of Ecto-5′-nucleotidase (CD73) based on 6‑(Het)aryl-7-deazapurine Ribonucleoside 5′‑O‑Bisphosphonates” (ACS Pharmacology & Translational Science, 2025).
In brackets after ≈: the same amount, converted by molar mass.

Columns and labels:
in vitro [1] = settings: human, plasma
HL-60 = assay: In vitro cytotoxic activity; format: cell-based; settings: Homo sapiens
Description: (§1) All the compounds were also tested for their in vitro cytotoxic activity on a small panel of four cancer cell lines (CCRF-CEM, HepG2, HeLa S3, HL-60) and nonmalignant human dermal fibroblasts (NHDF).

HepG2 = assay: In vitro cytotoxic activity; format: cell-based; settings: Homo sapiens
Description: as §1

HeLa S3 = assay: In vitro cytotoxic activity; format: cell-based; settings: Homo sapiens
Description: as §1

[2] = test system: nonmalignant human dermal fibroblasts (NHDF); assay: In vitro cytotoxic activity; format: cell-based
Description: as §1

CCRF-CEM = assay: In vitro cytotoxic activity; format: cell-based; settings: Homo sapiens
Description: as §1

[3] = Microsomal stability assay, mouse liver microsomes; format: in vitro ADME; settings: for Mics (m) comp remaining 60 min: 10 μM; for microsomal CLint at 10 µM: pooled liver microsomes, pH 7.4, read-out: Mics (m) CLint
in vitro [4] = settings: mouse, plasma
[5] = In vivo pharmacokinetic study, intravenous; parameters: species or system male CD-1 mice; settings: plasma, 1 mg/kg, intravenous; for half-life: male, CD-1, mouse, iv, footnote: t1/2 stability in plasma, text: half-life in mouse PK; for clearance: mouse, male CD-1 mice, single dose, read-out: Cl (obs), observed clearance
Description: The pharmacokinetic study was performed by Bienta (Enamine Biology Services) using male CD-1 mice (3 animals, 9 weeks old, body weight ranging from 29.2 to 33.7 g) following intravenous administration. Levels of the test compound were determined by LC-MS/MS in blood plasma over time (seven sampling time points: 5, 15, 30, 60, 120, 240, and 480 min) after a single dose.
Animal treatment and samples preparation were conducted by the Animal Laboratory personnel at Enamine/Bienta.

[6] = Microsomal stability assay, human liver microsomes; format: in vitro ADME; settings: for Mics (hu) comp remaining 60 min: 10 μM; for microsomal CLint at 10 µM: pooled liver microsomes, pH 7.4, read-out: Mics (hu) CLint
[7] = Kinetic solubility in PBS; format: physicochemical; settings: phosphate-buffered saline, pH 7.4, aqueous buffer, kinetic from dmso stock
Procedure, shortened: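 Echo-MS quantitation with calibration from 0.05 to 4 μM, after 1:99 dilution of filtrate into 50% acetonitrile. Filtrate came from a 100 μM PBS (pH 7.4) solution equilibrated 2 h at room temperature with shaking, in duplicate.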

[8] = Plasma protein binding, equilibrium dialysis, human plasma; format: in vitro ADME; settings: undiluted plasma, human plasma protein binding, read-out: PPB (hu) (converted)
[9] = molecular target: T1, recombinant human CD73 (hCD73) (Homo sapiens, UniProt P21589); assay: CD73 activity assay on recombinant human CD73; format: biochemical; settings: ΔGexp = RT ln Ki
T1 sequence (P21589 27-574): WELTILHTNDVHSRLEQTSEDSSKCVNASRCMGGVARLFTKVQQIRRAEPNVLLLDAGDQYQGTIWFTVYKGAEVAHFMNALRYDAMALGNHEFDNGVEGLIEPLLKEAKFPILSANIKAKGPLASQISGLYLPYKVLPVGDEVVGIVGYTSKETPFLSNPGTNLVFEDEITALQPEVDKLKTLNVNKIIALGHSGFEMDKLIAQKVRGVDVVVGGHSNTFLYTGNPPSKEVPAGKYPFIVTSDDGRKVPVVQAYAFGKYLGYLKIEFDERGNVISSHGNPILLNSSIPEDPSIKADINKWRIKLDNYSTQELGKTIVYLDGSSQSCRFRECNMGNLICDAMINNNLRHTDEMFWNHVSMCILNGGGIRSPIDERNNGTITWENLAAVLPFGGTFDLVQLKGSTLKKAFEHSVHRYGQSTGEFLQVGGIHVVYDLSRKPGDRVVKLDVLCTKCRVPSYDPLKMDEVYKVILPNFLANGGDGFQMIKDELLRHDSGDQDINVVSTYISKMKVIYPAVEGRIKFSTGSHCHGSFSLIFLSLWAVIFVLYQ

[10] = Plasma protein binding, mouse plasma; format: in vitro ADME; settings: mouse, plasma
[11] = Tables 2 and 4, mouse plasma, read-out: fup, fraction unbound in mouse plasma
[12] = mouse plasma protein binding, read-out: PPB (m) (converted)

With `O=P(O)(O)CP(=O)(O)OC[C@H]1O[C@@H](n2ccc3c(-c4ccc5ccccc5c4)nc(Cl)nc32)[C@H](O)[C@@H]1O` [7B.7] the half-life at 10 µM (in vitro [1]) was > 2 h, the IC50 (HL-60) was > 10 µM and the IC50 (HepG2) was > 10 µM. For the same compound, the IC50 (HeLa S3) was > 10 µM, the IC50 [2] was > 10 µM and the IC50 (CCRF-CEM) was > 10 µM. For the same compound, the “Mics (m) comp remaining 60 min” value [3] was 106%, the microsomal CLint at 10 µM [3] was < 1 µL/min/mg and the half-life at 10 µM (in vitro [4]) was > 2 h. For the same compound, the half-life [5] was 0.122 h, the clearance [5] was 8.3 mL/min/kg and the “Mics (hu) comp remaining 60 min” value [6] was 111%. The microsomal CLint at 10 µM [6] was < 1 µL/min/mg, the solubility at 2 h [7] was 84 µM (≈ 47.9 µg/mL) and the fraction unbound at 4 h, 100 µM [8] was 0.033. For the same compound, the “dG_exp, experimental binding free energy” value [9] was “–15.9 kcal/mol”, the fraction unbound at 4 h, 100 µM [10, 11] was 0.11 and the fraction unbound at 4 h, 100 µM [10, 12] was 0.112.
For `O=P(O)(O)CP(=O)(O)OC[C@H]1O[C@@H](n2ccc3c(-c4cc5ccccc5o4)nc(Cl)nc32)[C@H](O)[C@@H]1O` [7B.8], the half-life at 10 µM (in vitro [1]) was > 2 h, the IC50 (HL-60) was 6 µM and the IC50 (HepG2) was > 10 µM. For the same compound, the IC50 (HeLa S3) was > 10 µM, the IC50 [2] was > 10 µM and the IC50 (CCRF-CEM) was > 10 µM. The “Mics (m) comp remaining 60 min” value [3] was 109%, the microsomal CLint at 10 µM [3] was < 1 µL/min/mg and the half-life at 10 µM (in vitro [4]) was > 2 h. The half-life [5] was 0.142 h, the clearance [5] was 8.8 mL/min/kg and the “Mics (hu) comp remaining 60 min” value [6] was 98%. It also gave a microsomal CLint at 10 µM [6] of 1 µL/min/mg, a solubility at 2 h [7] of 87 µM (≈ 48.7 µg/mL) and a fraction unbound at 4 h, 100 µM [8] of 0.033. For the same compound, the “dG_exp, experimental binding free energy” value [9] was “–16.0 kcal/mol”, the fraction unbound at 4 h, 100 µM [10, 11] was 0.19 and the fraction unbound at 4 h, 100 µM [10, 12] was 0.187.
For `O=P(O)(O)CP(=O)(O)OC[C@H]1O[C@@H](n2ccc3c(-c4cc5ccccc5[nH]4)nc(Cl)nc32)[C@H](O)[C@@H]1O` [7B.24], the half-life at 10 µM (in vitro [1]) was > 2 h, the IC50 (HL-60) was > 10 µM and the IC50 (HepG2) was > 10 µM. For the same compound, the IC50 (HeLa S3) was > 10 µM, the IC50 [2] was > 10 µM and the IC50 (CCRF-CEM) was > 10 µM. For the same compound, the “Mics (m) comp remaining 60 min” value [3] was 72%, the microsomal CLint at 10 µM [3] was 12 µL/min/mg and the half-life at 10 µM (in vitro [4]) was > 2 h. For the same compound, the half-life [5] was 0.617 h, the clearance [5] was 12 mL/min/kg and the “Mics (hu) comp remaining 60 min” value [6] was 111%. For the same compound, the microsomal CLint at 10 µM [6] was < 1 µL/min/mg, the solubility at 2 h [7] was > 100 µM and the fraction unbound at 4 h, 100 µM [8] was 0.012. For the same compound, the “dG_exp, experimental binding free energy” value [9] was “–15.7 kcal/mol”, the fraction unbound at 4 h, 100 µM [10, 11] was 0.21 and the fraction unbound at 4 h, 100 µM [10, 12] was 0.201.
For `O=P(O)(O)CP(=O)(O)OC[C@H]1O[C@@H](n2ccc3c(-c4ccc5cc(F)ccc5c4)nc(Cl)nc32)[C@H](O)[C@@H]1O` [7B.25], the half-life at 10 µM (in vitro [1]) was > 2 h, the IC50 (HL-60) was > 10 µM and the IC50 (HepG2) was > 10 µM. For the same compound, the IC50 (HeLa S3) was > 10 µM, the IC50 [2] was > 10 µM and the IC50 (CCRF-CEM) was > 10 µM. For the same compound, the “Mics (m) comp remaining 60 min” value [3] was 109%, the microsomal CLint at 10 µM [3] was < 2 µL/min/mg and the half-life at 10 µM (in vitro [4]) was > 2 h. The half-life [5] was 0.283 h, the clearance [5] was 5.9 mL/min/kg and the “Mics (hu) comp remaining 60 min” value [6] was 108%. For the same compound, the microsomal CLint at 10 µM [6] was < 2 µL/min/mg, the solubility at 2 h [7] was > 100 µM and the fraction unbound at 4 h, 100 µM [8] was ≤ 0.01. For the same compound, the “dG_exp, experimental binding free energy” value [9] was “–15.4 kcal/mol”, the fraction unbound at 4 h, 100 µM [10, 11] was 0.08 and the fraction unbound at 4 h, 100 µM [10, 12] was 0.079.
With `O=P(O)(O)CP(=O)(O)OC[C@H]1O[C@@H](n2ccc3c(-c4cc(Br)c5ccccc5c4F)nc(Cl)nc32)[C@H](O)[C@@H]1O` [7B.26] the half-life at 10 µM (in vitro [1]) was > 2 h, the IC50 (HL-60) was > 10 µM and the IC50 (HepG2) was > 10 µM. For the same compound, the IC50 (HeLa S3) was > 10 µM, the IC50 [2] was > 10 µM and the IC50 (CCRF-CEM) was > 10 µM. The “Mics (m) comp remaining 60 min” value [3] was 113%, the microsomal CLint at 10 µM [3] was < 2 µL/min/mg and the half-life at 10 µM (in vitro [4]) was > 2 h. The half-life [5] was 1.67 h, the clearance [5] was 1.1 mL/min/kg and the “Mics (hu) comp remaining 60 min” value [6] was 117%. The microsomal CLint at 10 µM [6] was < 2 µL/min/mg, the solubility at 2 h [7] was 71 µM (≈ 47.3 µg/mL) and the fraction unbound at 4 h, 100 µM [8] was ≤ 0.01. The “dG_exp, experimental binding free energy” value [9] was “–15.7 kcal/mol”, the fraction unbound at 4 h, 100 µM [10, 11] was 0.02 and the fraction unbound at 4 h, 100 µM [10, 12] was 0.016.
